GI50 and TGI data for eight molecules are collected here from PubChem BioAssay (NCI).

What all share (assay): NCI tumour cell line growth inhibition, 48 h
Experiment [1] has as its system SK-MEL-28 melanoma.
The subject of experiment [2] is HCT-15 colon.
Experiment [3] deals with U251 CNS.
The test system of experiment [4] is 786-0 renal.
The test system of experiment [5] is LOX IMVI melanoma.
Experiment [6] concerns SNB-19 CNS.
The subject of experiment [7] is NCI-H460 lung.
For experiment [8], the system named is PC-3 prostate.
In experiment [9] the test system is MALME-3M melanoma.
Experiment [10] relates to HT29 colon.

Where “and” joins values, the source holds several entries; their conditions need not be identical. Equal entries are not always repeated.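 Cultured in 96-well plates, cells were exposed to test compound for 48 hours across five concentrations. GI50 marks 50% less growth. TGI denotes the concentration required for complete inhibition of growth.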

In the case of `NC(=O)c1nc(-c2c(F)cccc2Cl)oc1Nc1ccc(C(=O)N2CCOCC2)cc1`, the GI50 in [1] is 13.9 µM; in experiment [2], 2.2 µM; in [3] it was 2.25 µM; in experiment [4] it was 2.18 µM; in experiment [5] it was 0.914 µM; in [6] it was 3 µM. The GI50 in experiment [7] was 0.805 µM; in [8], 7.83 µM; in [9] it was 13 µM; in experiment [10] it was 1.62 µM. The TGI in experiment [1] is greater than 100 µM; in experiment [2] it was greater than 100 µM; in experiment [3] it was greater than 100 µM; in [4], greater than 100 µM; in [5], 5.61 µM; in experiment [6], greater than 100 µM. Also, the TGI was greater than 100 µM in experiment [7], greater than 100 µM in [8], 55.6 µM in experiment [9] and greater than 100 µM in experiment [10].

For the molecule `S=C(Sc1ccc(Cl)cc1)Sc1ccc(Cl)cc1`, the GI50 in experiment [1] is 1.89 µM; in [2], 1.77 µM; in [3] it was 2.64 µM; in experiment [4], 1.94 µM; in [5] it was 1.13 µM; in experiment [6] it was 3.8 µM. Besides, the GI50 is 3.12 µM in experiment [7], 1.58 µM in experiment [8], 2.31 µM in [9] and 1.95 µM in experiment [10]. Further, the TGI in experiment [1] worked out at 3.49 µM; in experiment [2], 4.71 µM; in experiment [3] it was 8.92 µM; in experiment [4] it was 3.6 µM; in experiment [5], 2.37 µM; in experiment [6], 16 µM. Moreover, the TGI in experiment [7] came out at 13.4 µM; in experiment [8], 3.34 µM; in [9] it was 4.8 µM; in experiment [10], 3.99 µM.

Take `O=C(CI)NC(=O)NC(=O)NCc1ccccc1`: the GI50 in experiment [1] was 2.96 µM; in experiment [2], 2.03 µM; in experiment [3], 13.6 µM; in [4], 1.98 µM; in experiment [5], 1.44 µM; in [6], 13 µM. Besides, the GI50 in experiment [7] is 5.3 µM; in [8], 15.1 µM; in [9] it was 1.57 µM; in experiment [10], 2.66 µM. The TGI in experiment [1] amounted to 11.3 µM; in experiment [2], 4.94 µM; in experiment [3] it was 27.1 µM; in experiment [4], 4.18 µM; in [5], 3 µM; in experiment [6], 31.9 µM. Also, the TGI in experiment [7] came to 23.4 µM; in experiment [8], 30.7 µM; in experiment [9], 3.52 µM; in experiment [10], 6.72 µM.

With `CCc1ccc(Oc2c(-c3ccc(OCc4ccc(Cl)cc4)cc3O)nn(C)c2C(F)(F)F)cc1`, the GI50 is 1.26 µM in [1]; 0.365 µM in [2]; 0.357 µM in experiment [3]; 1.22 µM in [4]; 0.416 µM in [5]; 0.591 µM in experiment [6]. The GI50 in experiment [7] is 0.356 µM; in experiment [8] it was 0.358 µM; in experiment [9], 1.14 µM; in experiment [10], 0.58 µM. Moreover, the TGI worked out at 2.91 µM in experiment [1]; 1.45 µM in experiment [2]; 1.36 µM in experiment [3]; 2.87 µM in experiment [4]; 1.51 µM in experiment [5]; 2.14 µM in experiment [6]. For the same molecule, the TGI in experiment [7] was 1.31 µM; in [8], 1.68 µM; in [9], 2.6 µM; in [10], 2.11 µM.

With `CCN(CC)CCNc1n[n+]([O-])c2cc([N+](=O)[O-])ccc2[n+]1[O-]`, the TGI was 22.4 µM and 22.8 µM and 14.5 µM in [1]; 5.12 µM and 3.16 µM and 2.74 µM in experiment [2]; 3.1 µM and 2.73 µM and 2.78 µM in experiment [3]; 3.1 µM and 1.63 µM and 1.68 µM in [4]; 2.06 µM and 1.96 µM and 1.83 µM in experiment [5]; 6.34 µM and 6.43 µM and 5.58 µM in [6]. Also, the TGI was 1.63 µM and 1.16 µM and 1.28 µM in experiment [7]; 9.4 µM and 4.92 µM and 4.59 µM in experiment [8]; 1.85 µM and 1.38 µM and 1.15 µM in [9]; 2.41 µM and 2.22 µM and 1.71 µM in [10]. The GI50 in experiment [2] was 0.87 µM and 0.287 µM and 0.273 µM; in [4] it was 0.462 µM and 0.239 µM and 0.2 µM; in experiment [7], 0.264 µM and 0.0353 µM and 0.0939 µM; in [8], 1.09 µM and 0.351 µM and 0.36 µM; in experiment [9], 0.571 µM and 0.306 µM and 0.144 µM.

With `CCOC(=O)c1cc(C(=O)c2ccc(OC)c(OC)c2)n2c1ccc1ccc3cccnc3c12`, the GI50 in experiment [1] is 3.7 µM; in [2], 1.25 µM; in [3], 3.61 µM; in [4] it was 2.34 µM; in experiment [5], 2.6 µM; in [6] it was 5.07 µM. The GI50 was 1.58 µM in experiment [7], 0.96 µM in experiment [8], 1.24 µM in [9] and 1.42 µM in [10]. Besides, the TGI is greater than 100 µM in experiment [1]; greater than 100 µM in experiment [2]; 26.9 µM in experiment [3]; greater than 100 µM in [4]; greater than 100 µM in experiment [5]; greater than 100 µM in experiment [6]. Also, the TGI in [7] was greater than 100 µM; in experiment [8], greater than 100 µM; in experiment [9], greater than 100 µM; in experiment [10], 23 µM.

`C[C@]12CCc3nc(Nc4ccc(O)cc4)sc3C1=CC[C@@H]1[C@@H]2CC[C@]2(C)/C(=N/NC(N)=S)CC[C@@H]12`: the GI50 in experiment [1] is 1.51 µM; in experiment [2] it was 1.24 µM; in experiment [3] it was 1.29 µM; in experiment [4] it was 1.64 µM; in experiment [5], 1.52 µM; in [6] it was 1.38 µM. Moreover, the figures for the GI50 in experiment [7], in experiment [8] and in [9] were 0.525 µM, 1.58 µM and 1.12 µM, respectively. Also, the TGI in [1] came out at 3.4 µM; in experiment [2], 3.03 µM; in [3] it was 2.6 µM; in experiment [4], 3.09 µM; in experiment [5] it was 2.86 µM; in [6], 2.94 µM. Also, the results for the TGI in experiment [7], in experiment [8] and in experiment [9] were 1.94 µM, 5.28 µM and 2.38 µM, respectively.

Take `CC[n+]1c(-c2ccccc2)c2cc(N)ccc2c2ccc(N)cc21`: the GI50 in experiment [1] was 0.607 µM; in experiment [2], 39.6 µM; in experiment [3], 0.399 µM; in [4], 1.37 µM and 1.16 µM and 3.57 µM; in experiment [5], 2.31 µM and 3.12 µM and 7.53 µM; in [6] it was 0.368 µM and 0.502 µM and 1.43 µM. Further, the GI50 in [7] is 1.21 µM; in experiment [8], 1.97 µM; in [9] it was 0.631 µM; in [10] it was 1.64 µM. For the same molecule, the TGI in experiment [1] was 2.12 µM and 8.02 µM; in experiment [2], greater than 100 µM; in experiment [3] it was 10.2 µM and 20.7 µM; in experiment [4], 13.6 µM and 12.7 µM and 26.1 µM; in experiment [5], 13.7 µM and 21.2 µM and 34.7 µM; in experiment [7], 12.3 µM and 22.5 µM and 22.1 µM. For the same molecule, the TGI was 17.5 µM and 26.5 µM in [8]; 2.9 µM and 6.43 µM in experiment [9]; 9.45 µM and 29 µM in experiment [10].
